Measurements published in patent US20110136730A1, “"Method for screening compounds comprising the use of picornavirus protease 2A"” (priority 2008, published 2011).

System: WT FMDV StopGo expressing construct in HEK-293 cells
Type: cell-based, human

## CC[C@H]1OC(=O)[C@H](C)[C@@H](O[C@H]2C[C@@](C)(OC)[C@@H](O)[C@H](C)O2)[C@H](C)[C@@H](O[C@@H]2O[C@H](C)C[C@H](N(C)C)[C@H]2O)[C@](C)(OC)C[C@@H](C)C(=O)[C@H](C)[C@@H](O)[C@]1(C)O [clarithromycin]
  effect on the Renilla/firefly ratio of the WT StopGo expressing construct: do not affect StopGo

## gentamycin
  effect on the Renilla/firefly ratio of the WT StopGo expressing construct: do not affect StopGo

## CCC[C@@H]1C[C@@H](C(=O)N[C@@H]([C@H]2O[C@H](SC)[C@H](O)[C@@H](O)[C@H]2O)[C@H](C)Cl)N(C)C1 [clindomygin]
  effect on the Renilla/firefly ratio of the WT StopGo expressing construct: do not affect StopGo

## CO[C@H]1C[C@H](O[C@H]2[C@H](C)[C@@H](O[C@@H]3O[C@H](C)C[C@H](N(C)C)[C@H]3OC(C)=O)[C@@H](C)C[C@@]3(CO3)C(=O)[C@H](C)[C@@H](OC(C)=O)[C@@H](C)[C@@H](C)OC(=O)[C@@H]2C)O[C@@H](C)[C@@H]1OC(C)=O [troleandomycin]
  effect on the Renilla/firefly ratio of the WT StopGo expressing construct: do not affect StopGo

## C[C@H]1O[C@H](O[C@H]2[C@H](O)[C@@H](O)[C@@H](O)[C@H](O)[C@@H]2O)[C@@H](N)C[C@@H]1NC(=N)C(=O)O [kasugamycin]
  effect on the Renilla/firefly ratio of the WT StopGo expressing construct: do not affect StopGo

## C=C[C@]1(C)C[C@@H](OC(=O)CSC(C)(C)CNC(=O)[C@H](N)C(C)C)[C@]2(C)[C@H](C)CC[C@]3(CCC(=O)[C@H]32)[C@@H](C)[C@@H]1O [valnemulin]
  effect on the Renilla/firefly ratio of the WT StopGo expressing construct: do not affect StopGo

## capromycin
  effect on the Renilla/firefly ratio of the WT StopGo expressing construct: do not affect StopGo

## CC[C@H]1OC(=O)C[C@@H](O)[C@H](C)[C@@H](O[C@@H]2O[C@H](C)[C@@H](O[C@H]3C[C@@](C)(O)[C@@H](O)[C@H](C)O3)[C@H](N(C)C)[C@H]2O)[C@@H](CC=O)C[C@@H](C)C(=O)/C=C/C(C)=C/[C@@H]1CO[C@@H]1O[C@H](C)[C@@H](O)[C@@H](OC)[C@H]1OC [tylosin]
  effect on the Renilla/firefly ratio of the WT StopGo expressing construct: do not affect StopGo

## CC[C@H]1OC(=O)[C@H](C)[C@@H](O[C@H]2C[C@@](C)(OC)[C@@H](O)[C@H](C)O2)[C@H](C)[C@@H](O[C@@H]2O[C@H](C)C[C@H](N(C)C)[C@H]2O)[C@](C)(O)C[C@@H](C)CN(C)[C@H](C)[C@@H](O)[C@]1(C)O [azithromycin]
  effect on the Renilla/firefly ratio of the WT StopGo expressing construct: do not affect StopGo

## CCC[C@@H]1C[C@@H](C(=O)N[C@@H]([C@H]2O[C@H](SC)[C@H](O)[C@@H](O)[C@H]2O)[C@@H](C)O)N(C)C1 [lincomycin]
  effect on the Renilla/firefly ratio of the WT StopGo expressing construct: do not affect StopGo

## C=C[C@]1(C)C[C@@H](OC(=O)CSCCN(CC)CC)[C@]2(C)[C@H](C)CC[C@]3(CCC(=O)[C@H]32)[C@@H](C)[C@@H]1O [tiamulin]
  effect on the Renilla/firefly ratio of the WT StopGo expressing construct: do not affect StopGo

## COc1ccc(C[C@H]2NC[C@H](O)[C@H]2OC(C)=O)cc1 [anisomycin]
  effect on the Renilla/firefly ratio of the WT StopGo expressing construct: do not affect StopGo
